{"source": "paper PMC9001717", "about": "“Tyrosine 121 moves revealing a ligandable pocket that couples catalysis to ATP-binding in serine racemase” (Communications Biology, 2022)", "origin": "cited, not measured here", "molecules": {"B1": {"name": "GRIP: glutamate receptor-interacting protein (protein, UniProt Q9Y3R0 1-1128, looked up)", "Glutamate …": "MIAVSFKCRCQILRRLTKDESPYTKSASQTKPPDGALAVRRQSIPEEFKGSTVVELMKKEGTTLGLTVSGGIDKDGKPRVSNLRQGGIAARSDQLDVGDYIKAVNGINLAKFRHDEIISLLKNVGERVVLEVEYELPPVSVQGSSVIFRTVEVTLHKEGNTFGFVIRGGAHDDRNKSRPVVITCVRPGGPADREGTIKPGDRLLSVDGIRLLGTTHAEAMSILKQCGQEAALLIEYDVSVMDSVATASGPLLVEVAKTPGASLGVALTTSMCCNKQVIVIDKIKSASIADRCGALHVGDHILSIDGTSMEYCTLAEATQFLANTTDQVKLEILPHHQTRLALKGPDHVKIQRSDRQLTWDSWASNHSSLHTNHHYNTYHPDHCRVPALTFPKAPPPNSPPALVSSSFSPTSMSAYSLSSLNMGTLPRSLYSTSPRGTMMRRRLKKKDFKSSLSLASSTVGLAGQVVHTETTEVVLTADPVTGFGIQLQGSVFATETLSSPPLISYIEADSPAERCGVLQIGDRVMAINGIPTEDSTFEEASQLLRDSSITSKVTLEIEFDVAESVIPSSGTFHVKLPKKHNVELGITISSPSSRKPGDPLVISDIKKGSVAHRTGTLELGDKLLAIDNIRLDNCSMEDAVQILQQCEDLVKLKIRKDEDNSDEQESSGAIIYTVELKRYGGPLGITISGTEEPFDPIIISSLTKGGLAERTGAIHIGDRILAINSSSLKGKPLSEAIHLLQMAGETVTLKIKKQTDAQSASSPKKFPISSHLSDLGDVEEDSSPAQKPGKLSDMYPSTVPSVDSAVDSWDGSAIDTSYGTQGTSFQASGYNFNTYDWRSPKQRGSLSPVTKPRSQTYPDVGLSYEDWDRSTASGFAGAADSAETEQEENFWSQALEDLETCGQSGILRELEEKADRRVSLRNMTLLATIMSGSTMSLNHEAPTPRSQLGRQASFQERSSSRPHYSQTTRSNTLPSDVGRKSVTLRKMKQEIKEIMSPTPVELHKVTLYKDSDMEDFGFSVADGLLEKGVYVKNIRPAGPGDLGGLKPYDRLLQVNHVRTRDFDCCLVVPLIAESGNKLDLVISRNPLASQKSIDQQSLPGDWSEQNSAFFQQPSHGGNLETREPTNTL"}, "B2": {"name": "PICK1: protein interacting with C-kinase (protein, UniProt Q9NRD5 1-415, looked up)", "PRKCA-binding protein": "MFADLDYDIEEDKLGIPTVPGKVTLQKDAQNLIGISIGGGAQYCPCLYIVQVFDNTPAALDGTVAAGDEITGVNGRSIKGKTKVEVAKMIQEVKGEVTIHYNKLQADPKQGMSLDIVLKKVKHRLVENMSSGTADALGLSRAILCNDGLVKRLEELERTAELYKGMTEHTKNLLRAFYELSQTHRAFGDVFSVIGVREPQPAASEAFVKFADAHRSIEKFGIRLLKTIKPMLTDLNTYLNKAIPDTRLTIKKYLDVKFEYLSYCLKVKEMDDEEYSCIALGEPLYRVSTGNYEYRLILRCRQEARARFSQMRKDVLEKMELLDQKHVQDIVFQLQRLVSTMSKYYNDCYAVLRDADVFPIEVDLAHTTLAYGLNQEEFTDGEEEEEEEDTAAGEPSRDTRGAAGPLDKGGSWCDS"}, "B3": {"name": "Golga3: Golgin subfamily A member 3 (protein, UniProt Q08378 1-1498, looked up)", "Golgin subfamily A member 3": "MDGASAEQDGLQEDRSHSGPSSLPEAPLKPPGPLVPPDQQDKVQCAEVNRASTEGESPDGPGQGGLCQNGPTPPFPDPPSSLDPTTSPVGPDASPGVAGFHDNLRKSQGTSAEGSVRKEALQSLRLSLPMQETQLCSTDSPLPLEKEEQVRLQARKWLEEQLKQYRVKRQQERSSQPATKTRLFSTLDPELMLNPENLPRASTLAMTKEYSFLRTSVPRGPKVGSLGLPAHPREKKTSKSSKIRSLADYRTEDSNAGNSGGNVPAPDSTKGSLKQNRSSAASVVSEISLSPDTDDRLENTSLAGDSVSEVDGNDSDSSSYSSASTRGTYGILSKTVGTQDTPYMVNGQEIPADTLGQFPSIKDVLQAAAAEHQDQGQEVNGEVRSRRDSICSSVSLESSAAETQEEMLQVLKEKMRLEGQLEALSLEASQALKEKAELQAQLAALSTKLQAQVECSHSSQQRQDSLSSEVDTLKQSCWDLERAMTDLQNMLEAKNASLASSNNDLQVAEEQYQRLMAKVEDMQRSMLSKDNTVHDLRQQMTALQSQLQQVQLERTTLTSKLKASQAEISSLQSVRQWYQQQLALAQEARVRLQGEMAHIQVGQMTQAGLLEHLKLENVSLSQQLTETQHRSMKEKGRIAAQLQGIEADMLDQEAAFMQIQEAKTMVEEDLQRRLEEFEGERERLQRMADSAASLEQQLEQVKLTLLQRDQQLEALQQEHLDLMKQLTLTQEALQSREQSLDALQTHYDELQARLGELQGEAASREDTICLLQNEKIILEAALQAAKSGKEELDRGARRLEEGTEETSETLEKLREELAIKSGQVEHLQQETAALKKQMQKIKEQFLQQKVMVEAYRRDATSKDQLISELKATRKRLDSELKELRQELMQVHGEKRTAEAELSRLHREVAQVRQHMADLEGHLQSAQKERDEMETHLQSLQFDKEQMVAVTEANEALKKQIEELQQEARKAITEQKQKMRRLGSDLTSAQKEMKTKHKAYENAVGILSRRLQEALAAKEAADAELGQLRAQGGSSDSSLALHERIQALEAELQAVSHSKTLLEKELQEVIALTSQELEESREKVLELEDELQESRGFRKKIKRLEESNKKLALELEHEKGKLTGLGQSNAALREHNSILETALAKREADLVQLNLQVQAVLQRKEEEDRQMKHLVQALQASLEKEKEKVNSLKEQVAAAKVEAGHNRRHFKAASLELSEVKKELQAKEHLVQKLQAEADDLQIREGKHSQEIAQFQAELAEARAQLQLLQKQLDEQLSKQPVGNQEMENLKWEVDQKEREIQSLKQQLDLTEQQGRKELEGLQQLLQNVKSELEMAQEDLSMTQKDKFMLQAKVSELKNNMKTLLQQNQQLKLDLRRGAAKTRKEPKGEASSSNPATPIKIPDCPVPASLLEELLRPPPAVSKEPLKNLNSCLQQLKQEMDSLQRQMEEHALTVHESLSSWTPLEPATASPVPPGGHAGPRGDPQRHSQSRASKEGPGE"}, "B4": {"name": "DISC1: Disrupted-In-Schizophrenia-1 (protein, UniProt Q9NRI5 1-854, looked up)", "Disrupted in schizophrenia 1 …": "MPGGGPQGAPAAAGGGGVSHRAGSRDCLPPAACFRRRRLARRPGYMRSSTGPGIGFLSPAVGTLFRFPGGVSGEESHHSESRARQCGLDSRGLLVRSPVSKSAAAPTVTSVRGTSAHFGIQLRGGTRLPDRLSWPCGPGSAGWQQEFAAMDSSETLDASWEAACSDGARRVRAAGSLPSAELSSNSCSPGCGPEVPPTPPGSHSAFTSSFSFIRLSLGSAGERGEAEGCPPSREAESHCQSPQEMGAKAASLDGPHEDPRCLSRPFSLLATRVSADLAQAARNSSRPERDMHSLPDMDPGSSSSLDPSLAGCGGDGSSGSGDAHSWDTLLRKWEPVLRDCLLRNRRQMEVISLRLKLQKLQEDAVENDDYDKAETLQQRLEDLEQEKISLHFQLPSRQPALSSFLGHLAAQVQAALRRGATQQASGDDTHTPLRMEPRLLEPTAQDSLHVSITRRDWLLQEKQQLQKEIEALQARMFVLEAKDQQLRREIEEQEQQLQWQGCDLTPLVGQLSLGQLQEVSKALQDTLASAGQIPFHAEPPETIRSLQERIKSLNLSLKEITTKVCMSEKFCSTLRKKVNDIETQLPALLEAKMHAISGNHFWTAKDLTEEIRSLTSEREGLEGLLSKLLVLSSRNVKKLGSVKEDYNRLRREVEHQETAYETSVKENTMKYMETLKNKLCSCKCPLLGKVWEADLEACRLLIQSLQLQEARGSLSVEDERQMDDLEGAAPPIPPRLHSEDKRKTPLKVLEEWKTHLIPSLHCAGGEQKEESYILSAELGEKCEDIGKKLLYLEDQLHTAIHSHDEDLIQSLRRELQMVKETLQAMILQLQPAKEAGEREAAASCMTAGVHEAQA"}}}
{"test_system": "SR", "design": "method as in supplementary refs 2, 11-32", "details": "literature summary; ref supplementary refs 2, 11-32; cited from earlier work"}
{"molecule": "O=C(O)C1CC1C(=O)O", "note": "(stereo not drawn) [1,2-cyclopropanedicarboxylic acid]", "Inhibition mode": "Competitive"}
{"molecule": "O=C(O)C(CO)(CO)C(=O)O", "note": "[2,2-bis(hydroxymethyl)malonate]", "Inhibition mode": "Competitive"}
{"molecule": "O=C(O)C(Cl)(Cl)C(=O)O", "note": "[2,2-dichloromalonate]", "Inhibition mode": "Competitive"}
{"molecule": "NC(C(=O)O)C(=O)O", "note": "[2-aminomalonate]", "Inhibition mode": "Competitive"}
{"molecule": "O=C(O)C(F)C(=O)O", "note": "[2-fluoromalonate]", "Inhibition mode": "Competitive"}
{"molecule": "O=C(O)C(O)C(=O)O", "note": "[2-hydroxymalonate]", "Inhibition mode": "Competitive"}
{"molecule": "O=C(O)/C(O)=C(\\O)C(=O)O", "note": "[Dihydroxyfumaric]", "Inhibition mode": "Competitive"}
{"molecule": "NC(CCS(=O)(=O)O)C(=O)O", "note": "(stereo not drawn) [Homocysteic acid]", "Inhibition mode": "Competitive"}
{"molecule": "NC(=O)C[C@H](N)C(=O)O", "note": "[L-asparagine]", "Inhibition mode": "Competitive"}
{"molecule": "N[C@@H](CC(=O)O)C(=O)O", "note": "[L-aspartate]", "Inhibition mode": "Competitive"}
{"molecule": "N[C@@H](CSS(=O)(=O)O)C(=O)O", "note": "[L-cysteine-S-sulfate]", "Inhibition mode": "Competitive"}
{"molecule": "O=C(O)C[C@H](O)C(=O)O", "note": "[L-malic]", "Inhibition mode": "Competitive"}
{"molecule": "N[C@@H](COS(=O)(=O)O)C(=O)O", "note": "[L-serine-O-sulfate]", "Inhibition mode": "Competitive"}
{"molecule": "O=C(O)/C=C\\C(=O)O", "note": "[Maleic]", "Inhibition mode": "Competitive"}
{"molecule": "O=C(O)CC(=O)C(=O)O", "note": "[Oxaloacetic acid]", "Inhibition mode": "Product inhibition"}
{"molecule": "O=C(O)CCC(=O)O", "note": "[Succinic]", "Inhibition mode": "Competitive"}
{"molecule": "O=C(O)C(O)C(O)C(=O)O", "note": "(stereo not drawn) [Tartaric]", "Inhibition mode": "Competitive"}
{"molecule": "NC(CO)(CO)C(=O)O", "note": "[α-(hydroxymethyl)serine]", "Inhibition mode": "Substrate-product inhibition"}
{"molecule": "N[C@@H](CCl)C(=O)O", "note": "[β-chloro-L-alanine]", "Inhibition mode": "Competitive"}
{"molecule": "phosphatidylinositol 4,5-bisphosphate [PIP2]", "Inhibition mode": "Inhibition (noncompetitive)"}
{"molecule": "B1", "Inhibition mode": "Activation; binds to SR"}
{"molecule": "B2", "Inhibition mode": "Inhibition; binds to SR"}
{"molecule": "B3", "Inhibition mode": "Increases SR levels"}
{"molecule": "B4", "Inhibition mode": "Stabilises SR"}
